From patent US8034931B2, “Process for producing substituted aminoquinazolinone derivative, intermediate therefor, and pest control agent” (Nihon Nohyaku Co., Ltd., priority 2003, dated 2011)

Tests used:
Format in all cases: in vivo
[1] = tested on: Greenhouse Whitefly (Trialeuroddes vaporariorum); assay: Insecticidal effect on greenhouse whitefly, sprayed tomato leaf (Test Examples 2 and 4); conditions: for Test Example 4: controlling effect at a low dosage (corrected mortality): 3 ppm liquid chemical, otherwise same as Test Example 2; for Test Example 2: insecticidal effect (corrected mortality): 100 ppm liquid chemical, sprayed tomato leaf, 20 adult whiteflies, four days after the inoculation
Text: Insecticidal Effect on Greenhouse Whitefly (Trialeuroddes vaporariorum)
A preparation containing each compound of the present invention listed in Tables 2 to 4 or each comparative compound as an active ingredient was dispersed in and diluted with water to obtain a 100 ppm liquid chemical. A tomato leaf set in a 20-ml vial with its stalk immersed in water was sprayed with the liquid chemical with a spray gun on a turntable. After air-dryness, the treated leaf was placed in a glass cylinder and inoculated with 20 adult greenhouse whiteflies. After the treatment, the glass cylinder was placed in a greenhouse. Four days after the inoculation, the living insects were counted. The corrected mortality was calculated according to the following equation and the insecticidal effect was judged according to the criterion shown below.
[formula] Criterion for Judgment:
Insecticidal Effect on Greenhouse (Trialeuroddes vaporariorum) at a Low Dosage
The same test as in Test Example 2 was carried out except for changing the concentration of the liquid chemical to 3 ppm.

[2] = tested on: Green Peach Aphid (Myzus persicae); assay: Insecticidal effect on green peach aphid, foliar spray on potted Chinese cabbage (Test Example 1); conditions: 500 ppm liquid chemical, sprayed on Chinese cabbage stalks and leaves, six days after the spraying
Text: Insecticidal Effect on Green Peach Aphid (Myzus persicae)
A Chinese cabbage plant was planted in each of plastic pots with a diameter of 8 cm and a height of 8 cm, and green peach aphids were propagated on the plant, after which the parasites in each pot were counted. A preparation containing each compound of the present invention listed in Tables 2 to 4 or each comparative compound as an active ingredient was dispersed in and diluted with water to obtain a 500 ppm liquid chemical. The stalks and leaves of the potted Chinese cabbage plants were sprayed with the liquid chemical and air-dried, and then the pots were stored in a greenhouse. Six days after the spraying, green peach aphids parasitic on each Chinese cabbage plant were counted and the control efficacy was calculated by the following equation, whereby the insecticidal effect was judged according to the criterion shown below. Control efficacy=100−{(T×Ca)/(Ta×C)}×100 • Ta: number of parasites before spraying in treated group, • T: number of parasites after spraying in treated group, • Ca: number of parasites before spraying in untreated group, • C: number of parasites after spraying in untreated group.

[3] = tested on: White Peach Scale (Pseudaulacaspis pentagona); assay: Insecticidal effect on white peach scale, sprayed potato tuber (Test Examples 3 and 5); conditions: 100 ppm liquid chemical, potato tuber with first-instar larvae, fourteen days after the treatment
Text: Insecticidal Effect on White Peach Scale (Pseudaulacaspis pentagona)
A preparation containing each compound of the present invention listed in Tables 2 to 4 or each comparative compound as an active ingredient was dispersed in and diluted with water to obtain a 100 ppm liquid chemical. A potato tuber with first-instar larvae of white peach scale as parasites was sprayed with the liquid chemical with a spray gun. Fourteen days after the treatment, the living insects were counted. In the same manner as in Test Example 2, the corrected mortality was calculated and the insecticidal effect was judged.
Insecticidal Effect on White Peach Scale (Pseudaulacaspis pentagona) at a Low Dosage
The same test as in Test Example 3 was carried out except for changing the concentration of the liquid chemical to 30 ppm.

Structure (SMILES)	Test Example 4: controlling effect at a low dosage (corrected mortality) [1]	Test Example 2: insecticidal effect (corrected mortality) [1]	Test Example 1: insecticidal effect (control efficacy) [2]	Test Example 3: insecticidal effect (corrected mortality) [3]
CC(=O)N1C(=O)N(N=Cc2cccnc2)Cc2ccccc21 [A, 1-acetyl-3-(3-pyridylmethylideneamino)-3,4-dihydro-2(1H)-quinazolinone, reference compound]	C (Corrected mortality 89-80%)	A (Corrected mortality 100%)	A (Control efficacy 100%)	B (Corrected mortality 99-90%)
CC(=O)N1C(=O)N(NCc2cccnc2)Cc2cc(Br)ccc21 [B, 1-acetyl-3-(3-pyridylmethylamino)-3,4-dihydro-6-bromo-2(1H)-quinazolinone, reference compound]	D (Corrected mortality 79-50%)	C (Corrected mortality 89-80%)	A (Control efficacy 100%)	C (Corrected mortality 89-80%)
CCN1C(=O)N(N=Cc2cccnc2)Cc2cc(C(F)(C(F)(F)F)C(F)(F)F)ccc21 [compound 2]		A (Corrected mortality 100%)	A (Control efficacy 100%)	A (Corrected mortality 100%)
COCN1C(=O)N(N=Cc2cccnc2)Cc2cc(C(F)(C(F)(F)F)C(F)(F)F)ccc21 [compound 4]		A (Corrected mortality 100%)	A (Control efficacy 100%)	A (Corrected mortality 100%)
CCOCN1C(=O)N(N=Cc2cccnc2)Cc2cc(C(F)(C(F)(F)F)C(F)(F)F)ccc21 [compound 5]		A (Corrected mortality 100%)	A (Control efficacy 100%)	A (Corrected mortality 100%)
N#CCN1C(=O)N(N=Cc2cccnc2)Cc2cc(C(F)(C(F)(F)F)C(F)(F)F)ccc21 [compound 6]		A (Corrected mortality 100%)	A (Control efficacy 100%)	A (Corrected mortality 100%)
O=CN1C(=O)N(N=Cc2cccnc2)Cc2cc(C(F)(C(F)(F)F)C(F)(F)F)ccc21 [compound 7]		A (Corrected mortality 100%)	A (Control efficacy 100%)	A (Corrected mortality 100%)
CCC(=O)N1C(=O)N(N=Cc2cccnc2)Cc2cc(C(F)(C(F)(F)F)C(F)(F)F)ccc21 [compound 9]		A (Corrected mortality 100%)	A (Control efficacy 100%)	A (Corrected mortality 100%)
CCCC(=O)N1C(=O)N(N=Cc2cccnc2)Cc2cc(C(F)(C(F)(F)F)C(F)(F)F)ccc21 [compound 10]		A (Corrected mortality 100%)	A (Control efficacy 100%)	A (Corrected mortality 100%)
CC(C)C(=O)N1C(=O)N(N=Cc2cccnc2)Cc2cc(C(F)(C(F)(F)F)C(F)(F)F)ccc21 [compound 11]		A (Corrected mortality 100%)	A (Control efficacy 100%)	A (Corrected mortality 100%)
CCCCC(=O)N1C(=O)N(N=Cc2cccnc2)Cc2cc(C(F)(C(F)(F)F)C(F)(F)F)ccc21 [compound 12]		A (Corrected mortality 100%)	A (Control efficacy 100%)	A (Corrected mortality 100%)
CCC(C)C(=O)N1C(=O)N(N=Cc2cccnc2)Cc2cc(C(F)(C(F)(F)F)C(F)(F)F)ccc21 (centres unmarked) [compound 13]		A (Corrected mortality 100%)	A (Control efficacy 100%)	A (Corrected mortality 100%)
O=C(C1CC1)N1C(=O)N(N=Cc2cccnc2)Cc2cc(C(F)(C(F)(F)F)C(F)(F)F)ccc21 [compound 14]		A (Corrected mortality 100%)	A (Control efficacy 100%)	A (Corrected mortality 100%)
COCC(=O)N1C(=O)N(N=Cc2cccnc2)Cc2cc(C(F)(C(F)(F)F)C(F)(F)F)ccc21 [compound 15]		A (Corrected mortality 100%)	A (Control efficacy 100%)	A (Corrected mortality 100%)
COC(=O)N1C(=O)N(N=Cc2cccnc2)Cc2cc(C(F)(C(F)(F)F)C(F)(F)F)ccc21 [compound 16]		A (Corrected mortality 100%)	A (Control efficacy 100%)	A (Corrected mortality 100%)
CCOC(=O)N1C(=O)N(N=Cc2cccnc2)Cc2cc(C(F)(C(F)(F)F)C(F)(F)F)ccc21 [compound 17]		A (Corrected mortality 100%)	A (Control efficacy 100%)	A (Corrected mortality 100%)
CCCOC(=O)N1C(=O)N(N=Cc2cccnc2)Cc2cc(C(F)(C(F)(F)F)C(F)(F)F)ccc21 [compound 18]		A (Corrected mortality 100%)	A (Control efficacy 100%)	A (Corrected mortality 100%)
CC(C)OC(=O)N1C(=O)N(N=Cc2cccnc2)Cc2cc(C(F)(C(F)(F)F)C(F)(F)F)ccc21 [compound 19]		A (Corrected mortality 100%)	A (Control efficacy 100%)	A (Corrected mortality 100%)
CCCCOC(=O)N1C(=O)N(N=Cc2cccnc2)Cc2cc(C(F)(C(F)(F)F)C(F)(F)F)ccc21 [compound 20]		A (Corrected mortality 100%)	A (Control efficacy 100%)	A (Corrected mortality 100%)
CCC(C)OC(=O)N1C(=O)N(N=Cc2cccnc2)Cc2cc(C(F)(C(F)(F)F)C(F)(F)F)ccc21 (centres unmarked) [compound 21]		A (Corrected mortality 100%)	A (Control efficacy 100%)	A (Corrected mortality 100%)
CS(=O)(=O)N1C(=O)N(N=Cc2cccnc2)Cc2cc(C(F)(C(F)(F)F)C(F)(F)F)ccc21 [compound 22]		A (Corrected mortality 100%)	A (Control efficacy 100%)	A (Corrected mortality 100%)
CCS(=O)(=O)N1C(=O)N(N=Cc2cccnc2)Cc2cc(C(F)(C(F)(F)F)C(F)(F)F)ccc21 [compound 23]		A (Corrected mortality 100%)	A (Control efficacy 100%)	A (Corrected mortality 100%)
O=C(c1ccccc1)N1C(=O)N(N=Cc2cccnc2)Cc2cc(C(F)(C(F)(F)F)C(F)(F)F)ccc21 [compound 24]		A (Corrected mortality 100%)	A (Control efficacy 100%)	A (Corrected mortality 100%)
O=C(c1ccccc1C(F)(F)F)N1C(=O)N(N=Cc2cccnc2)Cc2cc(C(F)(C(F)(F)F)C(F)(F)F)ccc21 [compound 25]		A (Corrected mortality 100%)	A (Control efficacy 100%)	A (Corrected mortality 100%)
